Reference: patent US7247306B2, “Bacteria strain and bacteriocin produced therefrom” (Universite Laval, priority 2004, dated 2007)
Marks after values point to notes of the source that are not given here.

Experiments:
Assay type in all cases: cell-based
L. welshimeri = assay: Agar diffusion method, spectrum of activity; design: key to Sensitivity to divergicin M35: +, inhibition;; −, no inhibition; conditions: strain LSD 12
Experimental: (§1) Bacteria stocks were maintained as 20% glycerol stock, at −80° C., for further use. Carnobacterium sp. and Lactococcus sp. strains were cultivated in MRS broth comprising 0.1% (vol/vol) Tween 80® in aerobic condition at 30° C., as currently known in the art. Listeria monocytogenes and Escherichia coli were grown in tryptic soy broth (TSB), supplemented with 0.6% (wt/vol) yeast extract in aerobic conditions, at 37° C., while Listeria innocua and L. ivanovii were re-cultivated in TSB with yeast extract and incubated aerobically at 30° C. Streptococcus thermophilus, Propionibacterium sp. and pediococci were activated in MRS broth at 37° C. under aerobic condition. All lactobacilli and bifidobacteria were grown in MRS broth supplemented with 0.05% (wt/vol) L-cysteine-hydrochloride and incubated anaerobically in Oxoid jars using an atmosphere generation system, at 37° C. In prior experiments, bacteria strains were sub-cultured at least three times (1%, vol/vol) in respective media at 24 h intervals.
(§2) The antibacterial activity of bacteriocin produced by C. divergens M35 was tested toward a variety of bacteria species, listed in Table 1, and belonging to genus Listeria, Lactobacillus, Streptococcus, Lactococcus, Propionibacterium and Escherichia, and was evaluated following the agar diffusion method, as is well known to those skilled in the art.

L. murayi = assay: Agar diffusion method, spectrum of activity; design: key to Sensitivity to divergicin M35: +, inhibition;; −, no inhibition; conditions: strain LSD 14
Experimental: as §1, §2

L. seeligeri = assay: Agar diffusion method, spectrum of activity; design: key to Sensitivity to divergicin M35: +, inhibition;; −, no inhibition; conditions: strain LSD 11
Experimental: as §1, §2

Carnobacterium piscicola = assay: Agar diffusion method, spectrum of activity; design: key to Sensitivity to divergicin M35: +, inhibition;; −, no inhibition; conditions: strain ATCC 386
Experimental: as §1, §2

Listeria monocytogenes = assay: Agar diffusion method, spectrum of activity; design: key to Sensitivity to divergicin M35: +, inhibition;; −, no inhibition
Experimental: as §1, §2

L. innocua = assay: Agar diffusion method, spectrum of activity; design: key to Sensitivity to divergicin M35: +, inhibition;; −, no inhibition; conditions: strain HPB13
Experimental: as §1, §2

L. innocua HPB13 [1] = assay: Bacteriocin activity during growth of C. divergens M35 in MRS broth, critical-dilution micromethod; conditions: 30° C.
Experimental: Protein concentration was determined as known in the art. Two-fold serial dilutions of 125 μl of tested sample were transferred into wells with a flat bottom microtest™ polystyrene microplate (96-well microtest, Becton Dickinson Labware, Franklin Lakes, N.J., USA), previously filled with 125 μl tryptic soy broth supplemented with 0.6% yeast extract (wt/vol). Each well was inoculated with 50 μl of 1000-fold diluted overnight culture of L. innocua HPB13 (final concentration of approximately 10^6 cfu/ml) and incubated at 30° C. for 18 h. Optical densities (650 nm) were then measured using a Thermo-max molecular device spectrophotometer (OPTI-Resources Inc., Quebec, PQ, Canada). The bacteriocin activity, expressed in arbitrary units per milliliter (AU/ml), was defined as the highest bacteriocin dilution showing complete inhibition of the indicator strain (optical density equals to that in un-inoculated media).
A C. divergens M35 culture were diluted (1% vol/vol) in peptone water (0.1%), plated on MRS agar supplemented with 0.1% vol/vol Tween 80® and incubated aerobically at 30° C. for 24 h. Bacterial viable counts, bacteriocin activity and pH were determined at 2 h intervals. Bacteriocin activity was determined according to the critical-dilution micromethod described hereinabove, using 5 ml of culture supernatant, separated by centrifugation and heated at 100° C.

L. innocua HPB13 [2] = assay: Critical-dilution micromethod (microtiter plate assay) on purification stages; conditions: specific activity at stage ni divided by that of the culture supernatant
Experimental: The concentrated bacteriocin was further purified by Reverse-Phase Column Liquid Chromatography (RP-HPLC) using a Beckman Gold System (Beckman Coulter Canada Inc., Mississauga, ON, Canada). Briefly, 100 μl of the concentrated bacteriocin were injected into an analytic C18 reverse-phase column (Luna 5μ, 4.6×250 mm, Phenomenex, Calif., USA). Elution was performed at a flow rate of 1 ml/min using a linear gradient from 90% solvent A (0.1% (wt/vol) trifluoroacetic acid (TFA) prepared in 5% (vol/vol) acetonitrile in water) and 10% solvent B (0.1% TFA in 100% acetonitrile) to 42 and 58% of solvents A and B, respectively, for 46 min. Peptide fractions were detected by spectrophotometry by measuring the absorbance at 220 nm and were collected manually. The fractions were concentrated using a speed-vac concentrator, dissolved in acetate buffer ([…], pH 4.0) and assayed for both bacteriocin activity by the critical-dilution micromethod, and protein content.
Protein concentration was determined as known in the art. […] Optical densities (650 nm) were then measured using a Thermo-max molecular device spectrophotometer (OPTI-Resources Inc., Quebec, PQ, Canada). […]
The biological activity of divergicin M35 was determined during the purification procedure by both agar diffusion and critical-dilution methods using L. innocua HPB 13 as indicator strain.

**Q.** How did the “Diameter of inhibition zone (mm)” value (L. welshimeri) turn out when “divergicin M35: class IIa bacteriocin of 43 amino acids, 4518 Da, produced by Carnobacterium divergens strain M35 (SEQ ID NO: 1) (TKYYGNGVYCNSKKCWVDWGTAQGCIDVVIGQLGGGIPGKGKC; listed as Carnobacterium divergens)” was run?
**A.** 20 ± 0.5 mm

**Q.** And the “Sensitivity to divergicin M35” value (L. welshimeri)?
**A.** +

**Q.** And the “Diameter of inhibition zone (mm)” value (L. murayi)?
**A.** 17.5 ± 1 mm

**Q.** And the “Sensitivity to divergicin M35” value (L. murayi)?
**A.** +

**Q.** What about the “Diameter of inhibition zone (mm)” value (L. seeligeri) of the same substance?
**A.** 13.5 ± 1 mm

**Q.** What about the “Sensitivity to divergicin M35” value (L. seeligeri) of the same substance?
**A.** +

**Q.** What about the “Diameter of inhibition zone (mm)” value (Carnobacterium piscicola) of the same substance?
**A.** 17.5 ± 1 mm

**Q.** What about the “Sensitivity to divergicin M35” value (Carnobacterium piscicola) of the same substance?
**A.** +

**Q.** And the “time the antibacterial activity (diameter of the inhibition zone) remained stable” value (Listeria monocytogenes; in every case (sensitive Listeria strains))?
**A.** ≥ 36 h

**Q.** And the “number of strains sensitive to divergicin M35” value (Listeria monocytogenes; of the 24 tested strains of L. monocytogenes)?
**A.** 22

**Q.** And the “Sensitivity to divergicin M35” value (Listeria monocytogenes; strain ATCC 19111)?
**A.** +

**Q.** What about the “Sensitivity to divergicin M35” value (Listeria monocytogenes; strain ATCC 19112) of the same substance?
**A.** +

**Q.** And the “Sensitivity to divergicin M35” value (Listeria monocytogenes; strain ATCC 19114)?
**A.** +

**Q.** What about the “Sensitivity to divergicin M35” value (Listeria monocytogenes; strain ATCC 19115) of the same substance?
**A.** +

**Q.** And the “Sensitivity to divergicin M35” value (Listeria monocytogenes; strain ATCC 35152)?
**A.** +

**Q.** What about the “Sensitivity to divergicin M35” value (Listeria monocytogenes; strain LSD 15) of the same substance?
**A.** −

**Q.** And the “sensitivity to divergicin M35 (in words)” value (Listeria monocytogenes; strain LSD 15)?
**A.** resistant

**Q.** What about the “Diameter of inhibition zone (mm)” value (Listeria monocytogenes; strain LSD 332) of the same substance?
**A.** 18.5 ± 1 mm

**Q.** What about the “Sensitivity to divergicin M35” value (Listeria monocytogenes; strain LSD 332) of the same substance?
**A.** +

**Q.** What about the “Diameter of inhibition zone (mm)” value (Listeria monocytogenes; strain LSD 336) of the same substance?
**A.** 16.5 ± 0.5 mm

**Q.** What about the “Sensitivity to divergicin M35” value (Listeria monocytogenes; strain LSD 336) of the same substance?
**A.** +

**Q.** What about the “Diameter of inhibition zone (mm)” value (Listeria monocytogenes; strain LSD 338) of the same substance?
**A.** 18.0 ± 0.5 mm

**Q.** What about the “Sensitivity to divergicin M35” value (Listeria monocytogenes; strain LSD 338) of the same substance?
**A.** +

**Q.** What about the “Diameter of inhibition zone (mm)” value (Listeria monocytogenes; strain LSD 339) of the same substance?
**A.** 19.0 ± 0.5 mm

**Q.** What about the “Sensitivity to divergicin M35” value (Listeria monocytogenes; strain LSD 339) of the same substance?
**A.** +

**Q.** And the “Diameter of inhibition zone (mm)” value (Listeria monocytogenes; strain LSD 340)?
**A.** 17.0 ± 0.5 mm

**Q.** What about the “Sensitivity to divergicin M35” value (Listeria monocytogenes; strain LSD 340) of the same substance?
**A.** +

**Q.** What about the “Diameter of inhibition zone (mm)” value (Listeria monocytogenes; strain LSD 341) of the same substance?
**A.** 13.0 ± 0.5 mm

**Q.** And the “Sensitivity to divergicin M35” value (Listeria monocytogenes; strain LSD 341)?
**A.** +

**Q.** What about the “Diameter of inhibition zone (mm)” value (Listeria monocytogenes; strain LSD 346) of the same substance?
**A.** 17.5 ± 1 mm

**Q.** What about the “Sensitivity to divergicin M35” value (Listeria monocytogenes; strain LSD 346) of the same substance?
**A.** +

**Q.** What about the “Diameter of inhibition zone (mm)” value (Listeria monocytogenes; strain LSD 348) of the same substance?
**A.** 17.5 ± 1 mm

**Q.** What about the “Sensitivity to divergicin M35” value (Listeria monocytogenes; strain LSD 348) of the same substance?
**A.** +

**Q.** What about the “Diameter of inhibition zone (mm)” value (Listeria monocytogenes; strain LSD 523) of the same substance?
**A.** 10 ± 1^b mm

**Q.** What about the “Sensitivity to divergicin M35” value (Listeria monocytogenes; strain LSD 523) of the same substance?
**A.** +

**Q.** What about the “Diameter of inhibition zone (mm)” value (Listeria monocytogenes; strain LSD 524) of the same substance?
**A.** 22.0 ± 1^b mm

**Q.** And the “Sensitivity to divergicin M35” value (Listeria monocytogenes; strain LSD 524)?
**A.** +

**Q.** And the “Sensitivity to divergicin M35” value (Listeria monocytogenes; strain LSD 525)?
**A.** −

**Q.** And the “sensitivity to divergicin M35 (in words)” value (Listeria monocytogenes; strain LSD 525)?
**A.** resistant

**Q.** And the “Diameter of inhibition zone (mm)” value (Listeria monocytogenes; strain LSD 526)?
**A.** 21.0 ± 1 mm

**Q.** And the “Sensitivity to divergicin M35” value (Listeria monocytogenes; strain LSD 526)?
**A.** +

**Q.** What about the “Diameter of inhibition zone (mm)” value (Listeria monocytogenes; strain LSD 529) of the same substance?
**A.** 14.5 ± 0.5 mm

**Q.** What about the “Sensitivity to divergicin M35” value (Listeria monocytogenes; strain LSD 529) of the same substance?
**A.** +

**Q.** And the “Diameter of inhibition zone (mm)” value (Listeria monocytogenes; strain LSD 530)?
**A.** 19.0 ± 1 mm

**Q.** And the “Sensitivity to divergicin M35” value (Listeria monocytogenes; strain LSD 530)?
**A.** +

**Q.** And the “Diameter of inhibition zone (mm)” value (Listeria monocytogenes; strain LSD 531)?
**A.** 18.5 ± 1 mm

**Q.** And the “Sensitivity to divergicin M35” value (Listeria monocytogenes; strain LSD 531)?
**A.** +

**Q.** What about the “Diameter of inhibition zone (mm)” value (Listeria monocytogenes; strain LSD 532) of the same substance?
**A.** 20.0 ± 0.5^b mm

**Q.** What about the “Sensitivity to divergicin M35” value (Listeria monocytogenes; strain LSD 532) of the same substance?
**A.** +

**Q.** What about the “Diameter of inhibition zone (mm)” value (Listeria monocytogenes; strain LSD 535) of the same substance?
**A.** 19.0 ± 0.5 mm

**Q.** What about the “Sensitivity to divergicin M35” value (Listeria monocytogenes; strain LSD 535) of the same substance?
**A.** +

**Q.** And the “Diameter of inhibition zone (mm)” value (Listeria monocytogenes; strain LSD 538)?
**A.** 20.0 ± 0.5 mm

**Q.** What about the “Sensitivity to divergicin M35” value (Listeria monocytogenes; strain LSD 538) of the same substance?
**A.** +

**Q.** And the “Diameter of inhibition zone (mm)” value (L. innocua)?
**A.** 21 ± 0.5 mm

**Q.** What about the “Sensitivity to divergicin M35” value (L. innocua) of the same substance?
**A.** +

**Q.** What about the “biological activity of divergicin M35 in culture” value (L. innocua HPB13 [1]; after 10 h of growth) of the same substance?
**A.** approximately 18000 AU/ml

**Q.** And the “biological activity of divergicin M35 in culture, maximum” value (L. innocua HPB13 [1]; after 14 h of growth)?
**A.** 65000 AU/ml

**Q.** What about the “Increase in specific Activity (fold)” value (L. innocua HPB13 [2]) of the same substance?
**A.** 9500 fold
